Data reported in PMC9977718, “A photoswitchable inhibitor of TREK channels controls pain in wild-type intact freely moving animals” (Nature Communications, 2023).

Molecular target: T1, TRESK (Mus musculus, UniProt Q6VV64)
T1 construct: gene Kcnk18
T1 sequence (Q6VV64 1-394): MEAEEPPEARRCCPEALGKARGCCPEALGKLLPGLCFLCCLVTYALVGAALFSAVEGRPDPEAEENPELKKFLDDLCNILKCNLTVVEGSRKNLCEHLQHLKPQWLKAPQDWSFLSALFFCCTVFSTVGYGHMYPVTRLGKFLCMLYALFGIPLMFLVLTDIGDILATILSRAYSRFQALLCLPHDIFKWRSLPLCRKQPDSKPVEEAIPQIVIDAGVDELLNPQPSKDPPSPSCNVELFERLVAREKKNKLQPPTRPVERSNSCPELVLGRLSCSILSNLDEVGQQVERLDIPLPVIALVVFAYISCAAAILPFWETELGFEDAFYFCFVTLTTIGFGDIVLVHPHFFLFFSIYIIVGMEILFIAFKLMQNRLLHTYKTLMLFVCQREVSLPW
Assay: whole-cell patch clamp, photoblock of mouse versus human channel
Format: cell-based

## COc1ccccc1C(=O)Nc1cccc(N=Nc2cccc(C)c2)c1 [LAKI]
  whole-cell patch clamp, photoblock of mouse versus human channel: LAKI photoblock is conserved among species since TRESK and TRAAK channel inhibitions are similar in mouse and human
